Tests used:
[1] = test system: protease-activated receptors; test: Fluo-4 Ca2+ assay, SLIGR-NH2 stimulus, HEKR2 cells; type: cell-based; settings: SLIGR-NH2 4 μM; compounds 10 μM; FIG. 5C bottom
Experimental: Experiments were performed using the microplate reader described for the HS-YFP assay. FRT and HEK293 cells were cultured until confluence in 96-well microplates (3603, Corning). Cells were washed 2 times with PBS (150 μl/wash) and then loaded for 1 h at 37° C. with 5 μM Fluo-4/AM (Thermo Fisher Scientific; catalog number: F23917) in PBS containing 10 mM glucose, 0.5 mM sulfinpyrazone, and 1% fetal bovine serum. After loading, cells were washed 2 times with PBS-glucose-sulfinpyrazone (150 μl/wash) and incubated for 20 min at 37° C. with 60 μl of PBS plus 10 mM glucose and 0.5 mM sulfinpyrazone containing compounds of interest at 10 μM final concentration or vehicle. Each well was assayed individually. Fluo-4 fluorescence (500 nm excitation, 535 nm emission) was detected every 200 ms for 16-40 s. Two seconds after the start of fluorescence recording, the reader automatically injected 165 μl of a modified PBS containing 136 mM KCl instead of NaCl. This solution also contained 10 mM glucose, 0.5 mM sulfinpyrazone, and UTP or SLIGR-NH2 (CAS #171436-38-7) at a final concentration that depended on the specific cell type. […] The Fluo-4 fluorescence increase was quantified using a procedure compiled in Microsoft Excel after background subtraction and normalization for the initial value measured before UTP addition.

[2] = test system: protease-activated and bradykinin receptors; settings: protease-activated and bradykinin receptor agonists; cited from earlier work
[3] = test system: TMEM16A; test: HS-YFP assay in ITPR-defective HEK293 cells transiently transfected with TMEM16A; type: cell-based; settings: UTP 5 μM, compound 10 μM, FIG. 2D
[4] = biological target: ITPR1 (Homo sapiens, UniProt Q14643); test: On-nucleus patch-clamp single-channel recordings, HEKR1 cells expressing ITPR1-EYFP; type: biochemical; parameters: EYFP; expressed in transfected cells; nuclei isolated for on-nucleus patch clamp; settings: 20 μM in pipette solution
Experimental: Nuclear membrane patch currents were recorded in HEKR1 cells stably transfected with a plasmid encoding human ITPR1 tagged with Enhanced Yellow Fluorescent Protein (EYFP) kindly provided by Prof. Colin W. Taylor (University of Cambridge) (17). For nuclei isolation, at least 1,000,000 HEKR1-ITPR1-EYFP cells plated in a 35 mm Petri dish were used following the protocol for patch clamp on the outer nuclear membrane (18,19). Briefly, a Duall homogenizer 20 tube (Kimble Chase 885482-0020) and a tissue grind (Kimble 885480-0020) were used. 20 strokes were applied to cells suspended in NIS-0 solution (25). NIS-O solution consisted of 40 ml of sucrose buffer (150 mM KCl, 250 mM sucrose, 1.4 mM β-mercaptoethanol, 10 mM Tris-HCl; pH 7.3 with KOH) supplemented with one tablet of complete protease inhibitor cocktail (Roche) and 200 μM PMSF.
Borosilicate glass pipettes were pulled on a two-step vertical puller (Narishige) to a final resistance of around 15-20 MO, as measured in the working solution. […]
During experiments, the membrane capacitance was analogically compensated using the circuitry provided by the EPC10 patch-clamp amplifier. […] Data were analysed using the Igor software (WaveMetrics, Lake Oswego, OR, USA) supplemented by custom software kindly provided by Dr. Oscar Moran (Institute of Biophysics, CNR, Genova, Italy).

ITPR1, sequence (Q14643 whole entry): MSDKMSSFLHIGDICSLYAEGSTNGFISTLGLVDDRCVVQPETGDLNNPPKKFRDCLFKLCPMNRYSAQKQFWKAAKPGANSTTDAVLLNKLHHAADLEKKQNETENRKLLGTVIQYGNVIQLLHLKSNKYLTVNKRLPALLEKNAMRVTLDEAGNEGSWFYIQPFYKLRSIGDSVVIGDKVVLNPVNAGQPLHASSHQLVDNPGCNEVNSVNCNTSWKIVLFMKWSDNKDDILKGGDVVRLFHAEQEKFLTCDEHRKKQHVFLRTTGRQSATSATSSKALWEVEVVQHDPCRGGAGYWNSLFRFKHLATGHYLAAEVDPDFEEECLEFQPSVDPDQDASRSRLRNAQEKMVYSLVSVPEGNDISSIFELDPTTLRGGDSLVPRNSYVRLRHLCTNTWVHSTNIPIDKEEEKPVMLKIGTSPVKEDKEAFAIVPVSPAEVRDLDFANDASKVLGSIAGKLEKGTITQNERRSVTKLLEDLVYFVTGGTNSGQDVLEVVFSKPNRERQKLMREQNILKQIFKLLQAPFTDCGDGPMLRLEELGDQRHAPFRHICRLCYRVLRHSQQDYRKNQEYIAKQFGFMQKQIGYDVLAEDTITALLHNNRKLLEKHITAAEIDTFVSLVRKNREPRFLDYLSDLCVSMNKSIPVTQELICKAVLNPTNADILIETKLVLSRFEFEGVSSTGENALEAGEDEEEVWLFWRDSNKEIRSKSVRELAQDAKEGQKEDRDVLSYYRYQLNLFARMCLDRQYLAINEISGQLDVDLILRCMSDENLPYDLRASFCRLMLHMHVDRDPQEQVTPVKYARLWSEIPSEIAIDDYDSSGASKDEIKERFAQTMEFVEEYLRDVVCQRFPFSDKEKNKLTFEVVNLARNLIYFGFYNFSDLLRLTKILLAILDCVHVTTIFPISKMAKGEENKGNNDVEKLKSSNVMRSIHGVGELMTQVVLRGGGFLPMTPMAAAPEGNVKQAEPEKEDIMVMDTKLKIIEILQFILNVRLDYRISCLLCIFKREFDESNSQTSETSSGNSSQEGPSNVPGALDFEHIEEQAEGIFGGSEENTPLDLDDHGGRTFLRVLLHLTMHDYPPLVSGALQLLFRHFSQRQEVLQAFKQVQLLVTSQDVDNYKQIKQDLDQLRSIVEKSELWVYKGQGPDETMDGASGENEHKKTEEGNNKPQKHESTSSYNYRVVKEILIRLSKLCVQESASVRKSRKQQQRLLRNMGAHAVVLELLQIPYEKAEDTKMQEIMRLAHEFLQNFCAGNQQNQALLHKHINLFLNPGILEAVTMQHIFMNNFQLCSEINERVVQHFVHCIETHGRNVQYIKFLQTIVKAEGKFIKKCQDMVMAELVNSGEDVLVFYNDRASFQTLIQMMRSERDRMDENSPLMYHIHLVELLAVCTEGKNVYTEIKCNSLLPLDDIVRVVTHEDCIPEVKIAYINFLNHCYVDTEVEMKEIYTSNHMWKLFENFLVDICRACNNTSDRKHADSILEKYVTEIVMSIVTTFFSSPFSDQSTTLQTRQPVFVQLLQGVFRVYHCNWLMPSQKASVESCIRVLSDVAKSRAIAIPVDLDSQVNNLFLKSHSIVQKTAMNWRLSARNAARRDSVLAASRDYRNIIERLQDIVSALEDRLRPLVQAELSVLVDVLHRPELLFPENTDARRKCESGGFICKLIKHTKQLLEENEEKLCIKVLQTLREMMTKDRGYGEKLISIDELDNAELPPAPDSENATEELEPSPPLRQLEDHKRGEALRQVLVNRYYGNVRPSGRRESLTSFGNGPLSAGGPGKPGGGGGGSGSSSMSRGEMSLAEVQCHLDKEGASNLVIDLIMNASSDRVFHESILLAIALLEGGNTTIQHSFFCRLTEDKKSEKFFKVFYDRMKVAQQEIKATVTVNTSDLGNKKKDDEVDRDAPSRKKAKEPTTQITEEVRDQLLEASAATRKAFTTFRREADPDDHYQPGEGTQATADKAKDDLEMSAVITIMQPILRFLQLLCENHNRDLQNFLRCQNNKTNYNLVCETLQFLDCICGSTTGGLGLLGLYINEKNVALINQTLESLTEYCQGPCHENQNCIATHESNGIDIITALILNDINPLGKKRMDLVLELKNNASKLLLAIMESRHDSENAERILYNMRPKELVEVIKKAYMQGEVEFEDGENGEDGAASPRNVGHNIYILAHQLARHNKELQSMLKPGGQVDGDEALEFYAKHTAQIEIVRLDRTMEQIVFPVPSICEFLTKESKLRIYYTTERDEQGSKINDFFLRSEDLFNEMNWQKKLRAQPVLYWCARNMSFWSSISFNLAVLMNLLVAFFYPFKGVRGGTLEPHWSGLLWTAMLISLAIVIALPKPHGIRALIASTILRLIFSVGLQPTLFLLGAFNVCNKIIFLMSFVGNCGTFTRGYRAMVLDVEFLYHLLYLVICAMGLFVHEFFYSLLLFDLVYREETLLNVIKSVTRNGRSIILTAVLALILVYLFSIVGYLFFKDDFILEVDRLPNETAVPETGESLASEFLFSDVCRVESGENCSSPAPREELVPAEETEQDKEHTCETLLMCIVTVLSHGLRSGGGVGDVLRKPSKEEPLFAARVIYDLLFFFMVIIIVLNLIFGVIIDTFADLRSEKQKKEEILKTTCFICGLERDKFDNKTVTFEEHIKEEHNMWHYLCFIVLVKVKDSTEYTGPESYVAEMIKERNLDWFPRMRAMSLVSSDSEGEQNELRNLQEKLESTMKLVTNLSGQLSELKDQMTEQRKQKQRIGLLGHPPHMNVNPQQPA

SMILES: OCc1ccccc1CN(Cc1ccnc(N2CCCC2)n1)c1ccc(F)cc1 [ARN4550, [2-[[4-Fluoro-N-[(2-pyrrolidin-1-ylpyrimidin-4-yl)methyl]anilino]methyl]phenyl]methanol]
- potentiation of SLIGR-NH2 stimulus (Ca2+ mobilization), HEKR2 cells [1]: only compound that potentiated

SMILES: CCc1cc(-c2cc(NCCCOc3ccccc3C)nc(N)n2)n(C)n1 [ARN7149, 6-(3-Ethyl-1-methyl-1H-pyrazol-5-yl)-N^4-(3-(o-tolyloxy)propyl)pyrimidine-2,4-diamine]
- effectiveness by agonist inducing Ca2+ mobilization (UTP vs other GPCR agonists) [2]: only effective when Ca^2+ mobilization is induced by UTP

SMILES: CCn1nc2c(c1C(=O)Nc1ccccc1OCC1CCCCO1)CCCC2 (centres unmarked) [ARN11391, 2-Ethyl-N-[2-(tetrahydropyran-2-ylmethoxy)phenyl]-4,5,6,7-tetrahydroindazole-3-carboxamide]
- activation of TMEM16A by UTP with/without compound (HS-YFP) [3]: no activation
- open channel probability (Po), average ([4]; Vp=+40 mV, FIG. 6A): ~0.2
- attempts with single channel openings of the expected ITPR1 current amplitude ([4]; ~10 pA at +40 mV): 5 out of 32

Source: patent US20260138970A1, “MODULATORS OF THE CALCIUM SIGNALING CASCADE” (FONDAZIONE TELETHON ETS, priority 2022, published 2026)
